The target in assay [1] is GABA-A receptor; anion channel. The experiment in a line: Displacement of [3H]muscimol from GABA(A) receptor in Sprague-Dawley rat cortical synaptic membranes by liquid scintillation counting. On the technique in general: In a radioligand displacement assay an active substance lowers the binding of a labelled ligand.
Assay [2] concerns the target T1, Sodium- and chloride-dependent GABA transporter 3 (Homo sapiens, UniProt P48066).
T1 sequence (P48066 whole entry): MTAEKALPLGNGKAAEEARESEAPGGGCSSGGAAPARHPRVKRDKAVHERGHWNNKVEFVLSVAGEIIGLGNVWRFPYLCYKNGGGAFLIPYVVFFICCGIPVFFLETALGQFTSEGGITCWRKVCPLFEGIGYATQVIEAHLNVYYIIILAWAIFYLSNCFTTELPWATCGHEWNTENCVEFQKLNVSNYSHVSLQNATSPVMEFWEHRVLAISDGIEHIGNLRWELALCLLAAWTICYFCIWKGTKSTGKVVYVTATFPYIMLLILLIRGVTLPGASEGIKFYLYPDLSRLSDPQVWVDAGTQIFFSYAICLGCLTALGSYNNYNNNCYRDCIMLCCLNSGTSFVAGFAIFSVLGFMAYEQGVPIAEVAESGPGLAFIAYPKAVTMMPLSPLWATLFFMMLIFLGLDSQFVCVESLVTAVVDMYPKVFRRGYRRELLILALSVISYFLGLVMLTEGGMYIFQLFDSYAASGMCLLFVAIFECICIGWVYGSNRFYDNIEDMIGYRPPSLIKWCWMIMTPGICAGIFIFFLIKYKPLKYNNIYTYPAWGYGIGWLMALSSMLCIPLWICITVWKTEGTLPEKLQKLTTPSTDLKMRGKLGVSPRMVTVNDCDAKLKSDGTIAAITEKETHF
The experiment in a line: Inhibition of human GAT3 expressed in Flp-In CHO cells assessed as reduction in [3H]GABA uptake incubated for 3 mins by liquid scintillation counting method. In kind it is cell-based.

Assay [3] concerns the target T2, Sodium- and chloride-dependent betaine transporter (Homo sapiens, UniProt P48065).
T2 sequence (P48065 whole entry): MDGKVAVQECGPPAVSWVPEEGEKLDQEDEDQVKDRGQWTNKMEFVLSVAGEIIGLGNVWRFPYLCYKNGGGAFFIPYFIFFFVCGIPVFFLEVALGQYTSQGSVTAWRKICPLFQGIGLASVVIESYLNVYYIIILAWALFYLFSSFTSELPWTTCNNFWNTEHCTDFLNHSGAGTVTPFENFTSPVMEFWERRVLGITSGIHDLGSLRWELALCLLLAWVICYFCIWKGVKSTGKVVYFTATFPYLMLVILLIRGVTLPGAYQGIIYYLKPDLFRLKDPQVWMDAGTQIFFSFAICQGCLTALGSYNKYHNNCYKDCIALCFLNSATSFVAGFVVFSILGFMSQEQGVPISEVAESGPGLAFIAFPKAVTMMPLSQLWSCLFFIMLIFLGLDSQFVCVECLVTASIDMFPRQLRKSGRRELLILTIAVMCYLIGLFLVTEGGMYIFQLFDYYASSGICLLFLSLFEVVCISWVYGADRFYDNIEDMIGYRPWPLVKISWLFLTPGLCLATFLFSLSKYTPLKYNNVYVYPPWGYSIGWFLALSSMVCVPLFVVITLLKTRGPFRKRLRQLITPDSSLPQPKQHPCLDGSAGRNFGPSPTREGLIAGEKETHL
As to the kind of experiment: Inhibition of human BGT1 expressed in Flp-In CHO cells assessed as reduction in [3H]GABA uptake incubated for 3 mins by liquid scintillation counting method. In kind it is cell-based.

The nature of a further assay: cells. In kind it is cell-based. The conditions noted are these: Homo sapiens, tsA201, 0.5 h.
Assay [4] deals with Sodium- and chloride-dependent GABA transporter 1 (Homo sapiens, UniProt P30531). The experiment in a line: Inhibition of human GAT1 expressed in Flp-In CHO cells assessed as reduction in [3H]GABA uptake at 100 uM incubated for 3 mins by liquid scintillation counting method relative to control. In kind it is cell-based.
Sequence of Sodium- and chloride-dependent GABA transporter 1 (P30531 whole entry, looked up): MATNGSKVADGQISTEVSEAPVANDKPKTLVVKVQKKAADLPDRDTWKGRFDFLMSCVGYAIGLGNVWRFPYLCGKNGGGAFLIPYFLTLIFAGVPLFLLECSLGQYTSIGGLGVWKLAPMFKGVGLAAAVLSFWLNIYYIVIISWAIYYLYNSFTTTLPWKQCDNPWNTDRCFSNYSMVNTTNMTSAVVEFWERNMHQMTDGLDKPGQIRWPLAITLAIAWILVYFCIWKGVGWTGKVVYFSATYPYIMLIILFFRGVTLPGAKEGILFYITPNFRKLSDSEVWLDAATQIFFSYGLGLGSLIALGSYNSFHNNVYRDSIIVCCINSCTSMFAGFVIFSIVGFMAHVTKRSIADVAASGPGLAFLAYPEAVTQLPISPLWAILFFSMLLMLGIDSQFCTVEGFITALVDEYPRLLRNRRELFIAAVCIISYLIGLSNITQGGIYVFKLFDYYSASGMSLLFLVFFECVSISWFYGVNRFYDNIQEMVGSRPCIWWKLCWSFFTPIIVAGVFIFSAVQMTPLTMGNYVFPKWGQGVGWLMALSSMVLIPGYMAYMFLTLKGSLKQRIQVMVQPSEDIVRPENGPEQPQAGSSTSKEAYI
For assay [5], the target named is T3, Sodium- and chloride-dependent GABA transporter 3 (Homo sapiens) (UniProt P48066).
T3 sequence (whole entry): T1 sequence (P48066 whole entry)
As to the kind of experiment: Inhibition of human GAT3 expressed in Flp-In CHO cells assessed as reduction in [3H]GABA uptake at 100 uM incubated for 3 mins by liquid scintillation counting method relative to control. In kind it is cell-based.

Assay [6] has as its target T4, Sodium- and chloride-dependent betaine transporter (Homo sapiens) (UniProt P48065).
T4 sequence (whole entry): T2 sequence (P48065 whole entry)
As to the kind of experiment: Inhibition of human BGT1 expressed in Flp-In CHO cells assessed as reduction in [3H]GABA uptake at 100 uM incubated for 3 mins by liquid scintillation counting method relative to control. In kind it is cell-based.

Molecules are shown by their SMILES.

As a reminder, the Ki is a dissociation constant, usually derived from enzyme kinetics or from competition with a known ligand. Read a low Ki as tighter binding. Usually pKi stands for −log10 of the Ki, conventionally taken in molar units. A lower pKi goes with a large Ki. The inhibition is the share of the control response that was lost under treatment.

Take `CC(C(=O)O)C1CSC(N)=N1` (stereo in doubt; l-10b): in assay [1], the inhibition constant Ki was 1300 nM and the pKi is 5.91. For the same molecule, in assay [2] (read-out: IC50), the IC50 was over 100 µM. For the same molecule, in assay [3] (read-out: IC50), the IC50 was over 100 µM.
The molecule `NC1=NC(CC(=O)O)CS1` (configuration not stated) showed a Ki in assay [1] of 110 nM. Besides, the EC50 in “cells” (read-out: EC50) and in the assay “cells” (read-out: pEC50 (converted)) was 1.1 µM throughout. The IC50 was 151 µM in assay [2] (read-out: IC50), 126 µM in assay [2] (read-out: pIC50 (converted)) and 47.4 µM in assay [3] (read-out: IC50). In addition, the inhibition in assay [4], in assay [5] and in assay [6] was over 30% throughout.
`C[C@@H](C(=O)O)[C@H]1CSC(N)=N1` (relative stereo) displayed a Ki in assay [1] of 1600 nM. Moreover, the values for the EC50 in “cells” (read-out: EC50) and in the assay “cells” (read-out: pEC50 (converted)) were 17 µM and 16.6 µM, respectively. Besides, the IC50 in assay [2] (read-out: IC50) and in assay [3] (read-out: IC50) was over 100 µM each time. In addition, the inhibition in assay [4], in assay [5] and in assay [6] was over 30% throughout.
For `O=C(O)C[C@H]1CCNC1`, the Ki in assay [1] was 210 nM. The EC50 is 5.6 µM in the assay “cells” (read-out: EC50) and 5.62 µM in “cells” (read-out: pEC50 (converted)). Moreover, the IC50 in assay [2] (read-out: IC50) is 2.3 µM; in assay [3] (read-out: IC50), 9.9 µM; in assay [3] (read-out: pIC50 (converted)), 7.94 µM. The inhibition in assay [4], in assay [5] and in assay [6] was over 30% each time.
Regarding `C[C@@H]1SC(N)=N[C@@H]1CC(=O)O` (relative stereo), the Ki in assay [1] came out at 5500 nM. Besides, the EC50 was 54 µM in the assay “cells” (read-out: EC50) and 55 µM in the assay “cells” (read-out: pEC50 (converted)). Besides, the IC50 in assay [2] (read-out: IC50) and in assay [3] (read-out: IC50) was over 100 µM throughout. Moreover, the inhibition in assay [4], in assay [5] and in assay [6] was over 30% in each case.
`CC(C(=O)O)C1CSC(N)=N1` (stereo in doubt; l-10a): the affinity in assay [1] corresponds to a Ki of 330 nM. The results for the EC50 in “cells” (read-out: EC50) and in the assay “cells” (read-out: pEC50 (converted)) were 30 µM and 30.2 µM, respectively. The IC50 in assay [2] (read-out: IC50) and in assay [3] (read-out: IC50) was over 100 µM each time.
In turn, `O=C(O)CC1CNC=N1` (configuration not stated) showed a Ki in assay [1] of 90 nM. The EC50 was 5.4 µM in “cells” (read-out: EC50) and 5.37 µM in the assay “cells” (read-out: pEC50 (converted)). Also, the IC50 in assay [2] (read-out: IC50) turned out to be 1.9 µM; in assay [3] (read-out: IC50), 7.3 µM. The inhibition in assay [4], in assay [5] and in assay [6] was over 30% throughout.
With `C[C@H]1SC(N)=N[C@@H]1CC(=O)O` (relative stereo), in assay [1], the Ki came to 12000 nM. The pKi in assay [1] worked out at 4.96. The IC50 in assay [2] (read-out: IC50) and in assay [3] (read-out: IC50) was over 100 µM throughout. Besides, the inhibition in assay [4], in assay [5] and in assay [6] was over 30% in each case.
`O=C(O)C[C@@H]1CCNC1` showed a Ki in assay [1] of 5600 nM. Also, the IC50 was 2.7 µM in assay [2] (read-out: IC50), 5 µM in assay [3] (read-out: IC50) and 3.98 µM in assay [3] (read-out: pIC50 (converted)). Moreover, the inhibition in assay [4], in assay [5] and in assay [6] was over 30% each time.
As to `NC1=NC(CC(=O)O)CN1` (configuration not stated), in assay [1], the Ki amounted to 450 nM. This molecule also returned a pKi in assay [1] of 6.37. The EC50 was 12 µM in the assay “cells” (read-out: EC50) and 11.5 µM in “cells” (read-out: pEC50 (converted)). The IC50 is 43.7 µM in assay [2] (read-out: IC50) and 3 µM in assay [3] (read-out: IC50). Moreover, the inhibition in assay [4], in assay [5] and in assay [6] was over 30% in each case.
With `C[C@@H](C(=O)O)[C@@H]1CSC(N)=N1` (relative stereo), in assay [1], the affinity corresponds to a Ki of 290 nM. The EC50 is 36 µM in “cells” (read-out: EC50) and 35.5 µM in “cells” (read-out: pEC50 (converted)). For the same molecule, the IC50 in assay [2] (read-out: IC50) and in assay [3] (read-out: IC50) was over 100 µM each time. The inhibition in assay [4], in assay [5] and in assay [6] was over 30% throughout.
